The text below walks through data of patent US8829194B2, “Crystalline forms of the sodium salt of (4-{4-[5-(6-trifluoromethyl-pyridin-3-ylamino)-pyridin-2-yl]-phenyl}-cyclohexyl)-acetic acid” (Novartis AG, priority 2010, dated 2014).

Read-outs that look alike come from different tables or passages of the source.

Common to all, as to type: physicochemical
A short description of data set [1]: Water loss as a function of temperature by TG/DTA (loss on drying, thermal transitions). The note with it: for LOD (thermal transitions): DTA signals, temperature at which the water is lost; for Loss On Drying (LOD) (%): total water loss by thermogravimetry, rt-295° C., 10°/min. From the text:
(ii) Thermogravimetric/Differential Thermal Analysis (TG/DTA) […]
The data listed below show the total water loss (LOD by thermogravimetry (TG)) and thermal transitions (DTA signals) show the temperature at which the water is lost.

Data set [2] can be described thus: Hygroscopicity (statement, no method given).
The nature of data set [3]: Humidity microbalance analysis (VTI), moisture sorption at 25° C. The note with it: for hygroscopicity / moisture uptake in words: variations in humidity. The text has this:
Thus, Modification C retains a stable weight from 0% relative humidity to 80% relative humidity while Modification A loses water with decreasing humidity and gains moisture with increasing humidity. With Modification C, a re-hydration step and the possible variability in water content between batches may thus be eliminated.
Modification N is particularly suitable for industrial scale-up. It is a crystalline anhydrous form.
Modification O is particularly suitable for industrial scale-up. It is a crystalline anhydrous form.

Data set [4] is described as follows: Solubility in common process solvents.
Data set [5] can be described thus: Physical stability of the crystalline forms (relative humidity, absorption-desorption isotherm FIG. 1, temperature, storage). The note with it: for physical stability (change into another form): storage / ambient conditions.
Data set [6] is described as follows: Vacuum thermogravimetric analysis (VTGA): drying and re-exposure to ambient conditions. The note with it: for hygroscopicity in words: concluded from VTGA re-exposure; for time until sample mass decreases to a steady value (drying complete): vacuum 50 mbar, 50° C., wet solid. As for the experimental part: The wet solid obtained by filtering the crystallization slurry is placed in a cup placed in a cell (i.e., a small chamber) and suspended form a microbalance; vacuum is applied to the cell, and the chamber is subsequently heated. The sample mass is monitored and recorded continuously, indicating when the sample drying is complete and if moisture uptake occurs when the cell is opened to the ambient atmosphere.
1.1149 g of Modification A solid, 0.089 g of distilled water and 10 mL of acetonitrile are added to a glass vial. The mixture is stirred vigorously at 20° C. for 18 hours. The mixture is filtered using vacuum and the wet cake is dried in a VTGA cell at approximately 50° C. and 20 mbar for approximately 5 hours.
1.2137 g of Modification A solids and 15 mL of anhydrous THF, 99.9%, are added to a glass vial. The mixture is heated to 45° C. with vigorous stirring. After slurrying at 45° C. for approximately 19 hours, the sample is filtered by vacuum and the wet cake is dried using the VTGA at approximately 50° C. and 20 mbar for approximately 5 hours.

Data set [7] in a line: Dynamic vapor absorption experiment. The note with it: dried product of Example 20. As for the experimental part:
2.0 g of Modification A, 17 mL of THF and 17 mL of 200-proof ethanol are added to a jacketed 100-mL glass reactor equipped with an overhead stirrer. The mixture is heated to approximately 50° C. with vigorous agitation to obtain a clear solution. To the warm solution, 3 mL of heptanes are added. In a small glass vial, 0.02 g of seed particles (Modification C, prepared from a previous batch) are added to 1 mL of heptanes, and the slurry is sonicated for approximately 1 minute. The seed slurry is then added to the warm solution to obtain a turbid solution at 50° C. To the turbid solution, 35 mL of heptanes are added as follows. First, 5 mL of heptanes are added over a 30-min period, followed by 75-min hold. Subsequently, an additional 30 m L of heptanes are added over 1.5 hours. The resulting thick slurry is cooled to 10° C. in 50 minutes. The slurry is filtered by vacuum, and the wet cake is washed with 25 mL of anhydrous THF and dried at 65° C. and 10 mbar. […] Based on Karl Fisher analysis, the dried solid contained 3.6% water.

As for `O=C([O-])C[C@H]1CC[C@H](c2ccc(-c3ccc(Nc4ccc(C(F)(F)F)nc4)cn3)cc2)CC1.[Na+]` [Modification K, sodium salt of (4-{4-[5-(6-trifluoromethyl-pyridin-3-ylamino)-pyridin-2-yl]-phenyl}-cyclohexyl)-acetic acid], in data set [1] (listed as K), the “LOD (thermal transitions)” value is 134.5 °C and the “Loss On Drying (LOD) (%)” value was 2.4%. Further, the hygroscopicity in words entry in data set [2] is “low hygroscopicity”.

With `O=C([O-])C[C@H]1CC[C@H](c2ccc(-c3ccc(Nc4ccc(C(F)(F)F)nc4)cn3)cc2)CC1.[Na+]` [Modification A, sodium salt of (4-{4-[5-(6-trifluoromethyl-pyridin-3-ylamino)-pyridin-2-yl]-phenyl}-cyclohexyl)-acetic acid], the “relative humidity at which moisture gain starts / becomes significant” value in data set [3] is listed as 10 % relative humidity. The “Mass uptake (% water absorbed)” value stood at 0.0% in data set [3] (0 % residual humidity); 3.9% in data set [3] (10 % residual humidity); 12.0% in data set [3] (50 % residual humidity); 12.0% in data set [3] (60 % residual humidity); 17.3% in data set [3] (70 % residual humidity); 17.5% in data set [3] (79 % residual humidity). For the same molecule, the “Mass uptake (% water absorbed)” value stood at 17.4% in data set [3] (90 % residual humidity) and 17.1% in data set [3] (95 % residual humidity). In addition, the “hygroscopicity / moisture uptake in words” value in data set [3] is listed as “takes up much more moisture compared to Modification C”. Also, the “Loss On Drying (LOD) (%)” value in data set [1] was found to be 9.1%. In addition, in data set [4], the “solubility in common process solvents” value is given as “relatively low”. Besides, the results for the hygroscopicity in words entry in data set [5] (sorption profile FIG. 1) and in data set [6] were “very hygroscopic” and “highly hygroscopic”, respectively. In addition, the “physical stability (change into another form)” value in data set [5] is reported as “converts to another form in samples that have not been refrigerated”. Besides, the “total mass gain due to moisture uptake upon opening the cell” value in data set [6] (after drying, 1000 mbar, ambient temperature, plateau at ca. 90 hours) was determined as 10.4%. Further, the “time until sample mass decreases to a steady value (drying complete)” value in data set [6] is recorded as “about 18 hours”.

For `O=C([O-])C[C@H]1CC[C@H](c2ccc(-c3ccc(Nc4ccc(C(F)(F)F)nc4)cn3)cc2)CC1.[Na+]` [Modification C, sodium salt of (4-{4-[5-(6-trifluoromethyl-pyridin-3-ylamino)-pyridin-2-yl]-phenyl}-cyclohexyl)-acetic acid], the “Mass uptake (% water absorbed)” value is reported as 0.0% in data set [3] (0 % residual humidity); 0.0% in data set [3] (10 % residual humidity); 0.1% in data set [3] (50 % residual humidity); 0.2% in data set [3] (60 % residual humidity); 0.4% in data set [3] (70 % residual humidity); 0.8% in data set [3] (79 % residual humidity). Further, the “Mass uptake (% water absorbed)” value in data set [3] (90 % residual humidity) was 12.0%; in data set [3] (95 % residual humidity), 15.6%. Also, the “relative humidity at which moisture gain starts / becomes significant” value in data set [3] (listed as Form C) is given as above 80 % relative humidity. Also, in data set [3], the “hygroscopicity / moisture uptake in words” value is on record as “does not lose or gain moisture”. The “LOD (thermal transitions)” value in data set [1] (listed as C) and in data set [1] (listed as modification C) was 126 °C in each case. Moreover, the “Loss On Drying (LOD) (%)” value in data set [1] was determined as 2.8%. In addition, the figures for the hygroscopicity in words entry in data set [7] and in data set [6] (listed as Form C) were “much lower hygroscopicity than Modification A” and “not hygroscopic”, respectively. Besides, the “mass uptake of moisture” value in data set [7] (from 0 to 80% relative humidity) amounted to 0.3%. In addition, the “temperature above which water is lost” value in data set [5] (heating) was “over 85 °C”. For the same molecule, in data set [5], the “physical stability (change into another form)” value is recorded as “does not change into another form under ambient conditions”. Moreover, the “mass change upon opening the cell to the ambient environment” value in data set [6] (Example 17, after drying at 50° C. and 20 mbar, 30%-56% relative humidity) is listed as “no mass change occurs”. In data set [6] (Example 18, approximately 15 hours at 20° C. and 43-59% relative humidity), the “mass gain when the dried solid was exposed to air” value is recorded as “No mass gain was observed”. Also, in data set [6] (after drying, 1000 mbar, ambient temperature), the “sample mass change upon opening the cell” value is recorded as “the sample mass does not change”. In data set [6], the “time until sample mass decreases to a steady value (drying complete)” value was “less than 1 hours”.
